Laboratory results reported in ChEMBL document CHEMBL1201862, “PubChem BioAssay data set” (2004).
Active and inactive are the calls of the source.

What was measured:
[1] = tested on: Streptococcus sp. 'group A'; test: Streptococcus pyogenes SK(-)GAS viability under kanamycin – luminescence, BacTiterGlo, confirmation, counter-screen for streptokinase expression inhibitor project, dose response (AID 1900); type: functional, organism-based
[2] = target: ALK tyrosine kinase receptor (Homo sapiens, UniProt Q9UM73); type: functional;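 further: ALK tested as one member of a kinase panel screen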
[3] = target: T1, Activin receptor type-1 (Homo sapiens, UniProt Q04771); test: Navigating the Kinome. Panel member name: ACVR1; type: functional
T1 sequence (Q04771 whole entry): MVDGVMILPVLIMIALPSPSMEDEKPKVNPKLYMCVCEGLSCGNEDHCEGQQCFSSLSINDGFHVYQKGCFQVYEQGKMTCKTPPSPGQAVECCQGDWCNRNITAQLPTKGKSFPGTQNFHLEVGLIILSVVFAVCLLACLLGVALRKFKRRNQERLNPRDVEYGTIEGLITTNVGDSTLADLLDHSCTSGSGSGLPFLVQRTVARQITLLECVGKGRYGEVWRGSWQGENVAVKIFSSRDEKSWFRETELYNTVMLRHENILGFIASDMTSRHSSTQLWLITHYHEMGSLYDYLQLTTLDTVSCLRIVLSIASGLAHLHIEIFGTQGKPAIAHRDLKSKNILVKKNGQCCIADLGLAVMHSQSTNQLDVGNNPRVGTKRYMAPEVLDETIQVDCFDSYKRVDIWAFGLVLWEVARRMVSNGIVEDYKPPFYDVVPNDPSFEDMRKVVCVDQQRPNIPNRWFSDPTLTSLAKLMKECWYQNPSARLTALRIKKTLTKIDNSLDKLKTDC

[4] = target: T2, Tyrosine-protein kinase JAK3 (Homo sapiens, UniProt P52333); type: functional
T2 sequence (P52333 whole entry): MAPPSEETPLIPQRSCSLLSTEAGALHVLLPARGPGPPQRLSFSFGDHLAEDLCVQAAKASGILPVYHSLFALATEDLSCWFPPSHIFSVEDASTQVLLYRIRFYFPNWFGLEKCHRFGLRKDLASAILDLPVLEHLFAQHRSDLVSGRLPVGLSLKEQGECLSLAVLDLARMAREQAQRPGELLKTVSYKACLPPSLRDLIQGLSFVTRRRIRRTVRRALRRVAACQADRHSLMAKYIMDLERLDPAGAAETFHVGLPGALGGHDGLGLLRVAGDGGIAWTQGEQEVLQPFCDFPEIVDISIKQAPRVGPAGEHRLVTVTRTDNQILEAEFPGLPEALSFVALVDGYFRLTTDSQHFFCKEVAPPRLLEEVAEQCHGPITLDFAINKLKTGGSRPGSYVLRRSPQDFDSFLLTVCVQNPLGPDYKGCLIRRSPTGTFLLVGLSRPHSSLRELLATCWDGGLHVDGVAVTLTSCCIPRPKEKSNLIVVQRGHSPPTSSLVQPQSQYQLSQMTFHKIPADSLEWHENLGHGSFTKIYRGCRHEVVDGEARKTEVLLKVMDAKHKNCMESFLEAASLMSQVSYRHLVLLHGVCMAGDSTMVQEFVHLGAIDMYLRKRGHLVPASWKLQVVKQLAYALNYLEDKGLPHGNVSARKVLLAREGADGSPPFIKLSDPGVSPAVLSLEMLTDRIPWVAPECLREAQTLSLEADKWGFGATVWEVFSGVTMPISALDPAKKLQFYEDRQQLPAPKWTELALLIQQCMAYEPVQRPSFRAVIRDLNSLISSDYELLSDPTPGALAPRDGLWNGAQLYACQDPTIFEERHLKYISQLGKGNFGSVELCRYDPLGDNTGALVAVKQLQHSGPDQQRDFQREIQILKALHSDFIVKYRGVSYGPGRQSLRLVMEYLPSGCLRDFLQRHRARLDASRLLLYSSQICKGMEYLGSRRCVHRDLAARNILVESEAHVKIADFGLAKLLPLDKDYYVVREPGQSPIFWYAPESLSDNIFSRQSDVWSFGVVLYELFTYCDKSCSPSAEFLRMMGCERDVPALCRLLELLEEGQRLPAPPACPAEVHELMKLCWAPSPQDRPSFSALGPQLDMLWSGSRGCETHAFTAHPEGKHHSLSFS

[5] = target: Serine/threonine-protein kinase TBK1 (Homo sapiens, UniProt Q9UHD2); test: Navigating the Kinome. Panel member name: TBK1; type: functional
[6] = target: Glycogen synthase kinase-3 alpha (Homo sapiens, UniProt P49840); type: functional;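 further: GSK3A result taken from a broad kinome-wide kinase panel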
[7] = target: Rho-associated protein kinase 1 (Homo sapiens, UniProt Q13464); type: functional;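 further: measured within a broad kinome-wide panel profiling many kinases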
[8] = target: BDNF/NT-3 growth factors receptor (Homo sapiens, UniProt Q16620); type: functional;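 further: NTRK2 measured as one member of a broad kinome-wide kinase profiling panel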
[9] = target: Cyclin-dependent kinase 7 (Homo sapiens, UniProt P50613); type: functional;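 further: value comes from a kinome-wide kinase profiling panel in which CDK7 is one member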
[10] = target: Mitogen-activated protein kinase 8 (Homo sapiens, UniProt P45983); type: functional;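 further: value comes from one member of a kinome-wide kinase profiling panel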
[11] = target: Leucine-rich repeat serine/threonine-protein kinase 2 (Homo sapiens, UniProt Q5S007); type: functional;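 further: value from a broad kinome-wide panel profiling study in which LRRK2 was one of the kinases tested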
[12] = target: Serine/threonine-protein kinase TAO1 (Homo sapiens, UniProt Q7L7X3); type: functional
[13] = target: Fibroblast growth factor receptor 1 (Homo sapiens, UniProt P11362); type: functional
[14] = target: Tyrosine-protein kinase Lck (Homo sapiens, UniProt P06239); type: functional;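 further: lck was assayed as one member of a kinase panel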
[15] = target: Dual specificity mitogen-activated protein kinase kinase 2 (Homo sapiens, UniProt P36507); test: Navigating the Kinome. Panel member name: MAP2K2; type: functional
[16] = target: Dual specificity tyrosine-phosphorylation-regulated kinase 1A (Homo sapiens, UniProt Q13627); type: functional;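 further: measured against DYRK1A as one member of a broad kinome profiling panel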
[17] = target: Tyrosine-protein kinase JAK2 (Homo sapiens, UniProt O60674); type: functional;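 further: JAK2 tested as one member of a kinase panel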

Mitogen-activated protein kinase 8, sequence (P45983 whole entry): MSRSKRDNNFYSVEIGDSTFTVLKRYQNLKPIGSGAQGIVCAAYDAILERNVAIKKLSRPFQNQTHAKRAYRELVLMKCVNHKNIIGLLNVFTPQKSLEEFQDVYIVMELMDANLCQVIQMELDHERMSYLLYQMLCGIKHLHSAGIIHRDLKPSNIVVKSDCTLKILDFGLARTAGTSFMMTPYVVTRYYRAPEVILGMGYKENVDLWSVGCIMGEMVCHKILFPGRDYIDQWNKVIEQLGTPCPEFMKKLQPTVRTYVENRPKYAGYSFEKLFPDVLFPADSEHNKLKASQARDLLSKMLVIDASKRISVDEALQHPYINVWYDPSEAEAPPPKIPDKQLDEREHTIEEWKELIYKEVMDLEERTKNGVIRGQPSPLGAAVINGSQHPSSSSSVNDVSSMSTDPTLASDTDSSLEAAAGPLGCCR
Rho-associated protein kinase 1, sequence (Q13464 whole entry): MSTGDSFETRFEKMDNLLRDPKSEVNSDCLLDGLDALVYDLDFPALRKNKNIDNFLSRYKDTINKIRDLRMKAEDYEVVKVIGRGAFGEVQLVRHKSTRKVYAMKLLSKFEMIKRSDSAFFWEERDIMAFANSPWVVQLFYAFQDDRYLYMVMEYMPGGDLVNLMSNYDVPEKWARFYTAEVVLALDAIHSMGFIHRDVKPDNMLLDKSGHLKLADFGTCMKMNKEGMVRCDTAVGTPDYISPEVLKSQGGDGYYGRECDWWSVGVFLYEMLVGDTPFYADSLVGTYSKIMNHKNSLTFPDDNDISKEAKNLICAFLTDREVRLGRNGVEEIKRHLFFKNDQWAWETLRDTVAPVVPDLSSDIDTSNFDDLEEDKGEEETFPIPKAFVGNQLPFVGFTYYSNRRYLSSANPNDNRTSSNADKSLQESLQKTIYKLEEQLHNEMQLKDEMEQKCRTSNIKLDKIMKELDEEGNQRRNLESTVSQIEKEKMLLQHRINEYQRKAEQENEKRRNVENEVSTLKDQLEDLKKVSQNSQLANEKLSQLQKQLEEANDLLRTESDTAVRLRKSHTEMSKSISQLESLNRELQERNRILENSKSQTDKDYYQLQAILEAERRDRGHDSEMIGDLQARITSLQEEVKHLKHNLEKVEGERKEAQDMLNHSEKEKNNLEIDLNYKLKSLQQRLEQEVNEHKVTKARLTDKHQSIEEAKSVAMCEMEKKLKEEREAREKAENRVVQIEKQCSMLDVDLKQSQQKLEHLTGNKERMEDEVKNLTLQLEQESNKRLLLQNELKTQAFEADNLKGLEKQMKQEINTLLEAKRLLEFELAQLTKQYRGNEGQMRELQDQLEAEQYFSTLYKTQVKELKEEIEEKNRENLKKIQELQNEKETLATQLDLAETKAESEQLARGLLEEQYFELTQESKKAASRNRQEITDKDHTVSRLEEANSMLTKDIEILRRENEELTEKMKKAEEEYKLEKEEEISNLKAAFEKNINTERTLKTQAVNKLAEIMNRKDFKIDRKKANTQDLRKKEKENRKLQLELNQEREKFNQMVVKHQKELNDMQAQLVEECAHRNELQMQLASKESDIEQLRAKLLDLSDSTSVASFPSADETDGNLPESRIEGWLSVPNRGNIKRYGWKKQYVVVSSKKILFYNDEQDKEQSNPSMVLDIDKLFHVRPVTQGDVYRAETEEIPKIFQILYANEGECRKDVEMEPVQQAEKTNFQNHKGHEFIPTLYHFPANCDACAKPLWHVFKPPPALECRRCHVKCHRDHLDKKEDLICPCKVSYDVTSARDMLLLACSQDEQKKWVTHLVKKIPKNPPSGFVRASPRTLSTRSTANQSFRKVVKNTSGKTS
ALK tyrosine kinase receptor, sequence (Q9UM73 whole entry): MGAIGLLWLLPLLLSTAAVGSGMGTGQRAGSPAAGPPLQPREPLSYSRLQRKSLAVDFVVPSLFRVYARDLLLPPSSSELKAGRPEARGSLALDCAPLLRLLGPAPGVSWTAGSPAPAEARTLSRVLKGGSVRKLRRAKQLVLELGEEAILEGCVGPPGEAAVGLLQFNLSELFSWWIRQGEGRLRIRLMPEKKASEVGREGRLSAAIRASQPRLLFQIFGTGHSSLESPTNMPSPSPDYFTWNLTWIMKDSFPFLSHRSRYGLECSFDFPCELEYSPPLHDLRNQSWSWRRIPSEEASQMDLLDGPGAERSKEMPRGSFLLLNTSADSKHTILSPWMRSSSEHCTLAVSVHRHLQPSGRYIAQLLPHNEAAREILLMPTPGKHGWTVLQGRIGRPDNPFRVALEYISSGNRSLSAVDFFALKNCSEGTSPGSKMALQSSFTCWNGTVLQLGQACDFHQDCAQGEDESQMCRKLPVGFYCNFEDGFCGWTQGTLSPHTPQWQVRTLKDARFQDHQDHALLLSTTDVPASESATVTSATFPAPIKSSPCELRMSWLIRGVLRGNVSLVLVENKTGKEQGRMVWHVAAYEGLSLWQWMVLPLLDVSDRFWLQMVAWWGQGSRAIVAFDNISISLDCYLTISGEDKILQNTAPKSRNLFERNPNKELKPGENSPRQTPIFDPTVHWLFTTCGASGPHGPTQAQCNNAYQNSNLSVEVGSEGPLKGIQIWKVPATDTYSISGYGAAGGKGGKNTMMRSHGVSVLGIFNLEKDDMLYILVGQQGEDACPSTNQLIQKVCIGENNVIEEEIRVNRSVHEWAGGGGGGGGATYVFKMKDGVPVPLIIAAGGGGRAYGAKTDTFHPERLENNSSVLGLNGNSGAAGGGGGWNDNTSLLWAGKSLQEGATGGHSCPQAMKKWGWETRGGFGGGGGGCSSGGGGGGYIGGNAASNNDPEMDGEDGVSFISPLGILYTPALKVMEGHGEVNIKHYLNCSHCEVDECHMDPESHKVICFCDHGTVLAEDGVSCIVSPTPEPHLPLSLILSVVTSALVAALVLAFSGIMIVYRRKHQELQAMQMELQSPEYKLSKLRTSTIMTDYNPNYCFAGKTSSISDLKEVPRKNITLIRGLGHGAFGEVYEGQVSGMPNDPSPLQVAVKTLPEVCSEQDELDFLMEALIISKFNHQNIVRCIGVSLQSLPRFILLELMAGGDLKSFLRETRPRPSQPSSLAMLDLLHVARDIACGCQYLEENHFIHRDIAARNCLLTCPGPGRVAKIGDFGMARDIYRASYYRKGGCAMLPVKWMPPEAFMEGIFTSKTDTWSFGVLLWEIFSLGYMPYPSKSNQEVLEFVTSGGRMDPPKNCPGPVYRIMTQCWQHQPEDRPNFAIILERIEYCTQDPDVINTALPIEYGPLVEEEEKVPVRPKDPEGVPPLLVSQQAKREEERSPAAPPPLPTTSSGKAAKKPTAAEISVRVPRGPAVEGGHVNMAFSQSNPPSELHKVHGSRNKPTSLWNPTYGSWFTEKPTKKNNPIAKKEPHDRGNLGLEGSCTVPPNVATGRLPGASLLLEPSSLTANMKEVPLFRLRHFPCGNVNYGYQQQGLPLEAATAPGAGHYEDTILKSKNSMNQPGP
Fibroblast growth factor receptor 1, sequence (P11362 whole entry): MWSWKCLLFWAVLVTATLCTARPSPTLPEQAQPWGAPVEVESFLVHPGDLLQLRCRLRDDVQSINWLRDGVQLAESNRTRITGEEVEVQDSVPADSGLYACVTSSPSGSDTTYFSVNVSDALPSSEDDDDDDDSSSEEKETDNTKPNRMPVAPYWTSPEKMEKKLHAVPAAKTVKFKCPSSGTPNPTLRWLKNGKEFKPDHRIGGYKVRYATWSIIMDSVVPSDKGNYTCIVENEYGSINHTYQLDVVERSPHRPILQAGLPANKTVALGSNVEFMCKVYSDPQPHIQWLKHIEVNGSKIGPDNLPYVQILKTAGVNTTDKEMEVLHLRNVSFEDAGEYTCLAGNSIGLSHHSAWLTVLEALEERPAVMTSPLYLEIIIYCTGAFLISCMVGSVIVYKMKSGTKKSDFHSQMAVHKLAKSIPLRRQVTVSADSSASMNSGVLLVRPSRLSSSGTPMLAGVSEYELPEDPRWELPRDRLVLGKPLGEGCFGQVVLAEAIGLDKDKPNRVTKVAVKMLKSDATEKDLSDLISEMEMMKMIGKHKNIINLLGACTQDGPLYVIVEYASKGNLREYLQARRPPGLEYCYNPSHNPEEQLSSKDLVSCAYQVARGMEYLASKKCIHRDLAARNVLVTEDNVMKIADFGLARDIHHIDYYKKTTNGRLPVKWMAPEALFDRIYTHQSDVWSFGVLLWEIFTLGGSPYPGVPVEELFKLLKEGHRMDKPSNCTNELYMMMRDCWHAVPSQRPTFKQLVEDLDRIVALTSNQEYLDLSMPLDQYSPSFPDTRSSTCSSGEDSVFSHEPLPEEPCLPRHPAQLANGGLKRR
BDNF/NT-3 growth factors receptor, sequence (Q16620 whole entry): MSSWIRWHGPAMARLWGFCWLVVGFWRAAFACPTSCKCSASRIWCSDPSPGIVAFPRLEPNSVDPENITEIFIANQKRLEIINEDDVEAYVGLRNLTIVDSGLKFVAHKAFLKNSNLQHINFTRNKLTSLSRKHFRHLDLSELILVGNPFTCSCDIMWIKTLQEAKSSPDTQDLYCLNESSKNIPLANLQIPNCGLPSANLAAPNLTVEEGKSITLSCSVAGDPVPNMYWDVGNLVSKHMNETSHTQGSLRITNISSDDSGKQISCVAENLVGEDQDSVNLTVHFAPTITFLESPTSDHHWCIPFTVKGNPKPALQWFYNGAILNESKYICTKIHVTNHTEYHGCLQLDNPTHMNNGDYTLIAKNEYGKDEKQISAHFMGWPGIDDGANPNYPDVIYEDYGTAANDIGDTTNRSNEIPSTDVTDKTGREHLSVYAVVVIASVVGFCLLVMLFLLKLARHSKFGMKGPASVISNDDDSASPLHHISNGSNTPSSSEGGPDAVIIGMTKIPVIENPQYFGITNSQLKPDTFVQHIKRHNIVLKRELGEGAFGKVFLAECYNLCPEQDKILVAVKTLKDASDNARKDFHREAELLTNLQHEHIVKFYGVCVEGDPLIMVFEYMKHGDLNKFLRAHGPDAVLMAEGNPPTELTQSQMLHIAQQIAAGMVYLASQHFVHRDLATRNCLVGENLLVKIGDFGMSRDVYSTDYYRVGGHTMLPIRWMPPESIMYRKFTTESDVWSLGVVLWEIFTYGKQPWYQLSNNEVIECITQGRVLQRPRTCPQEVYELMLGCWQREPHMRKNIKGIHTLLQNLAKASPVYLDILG

SMILES | EC50 [1] | Ki [2] | Ki [3] | Ki [4] | Ki [5] | Ki [6] | Ki [7] | Ki [8] | Ki [9] | Ki [10] | Ki [11] | Ki [12] | Ki [13] | Ki [14] | Ki [15] | Ki [16] | Ki [17] | also measured
CCOC(=O)c1ccc(NC2=CC(=O)C(=O)c3ccccc32)cc1 | 2.3 µM (active) | – | – | – | – | – | – | – | – | – | – | – | – | – | – | – | – | –
CCCCCCCCCCCCCCCC[N+](C)(C)C | 2.06 µM (active) | – | – | – | – | – | – | – | – | – | – | – | – | – | – | – | – | –
NC1CCC(Nc2nc(Cl)cc(-c3c[nH]c4ncccc34)n2)CC1 (stereo not drawn) | – | 0.631 µM (active) | 0.631 µM (active) | 0.158 µM (active) | 2 µM (active) | 0.398 µM (active) | 0.00126 µM (active) | 0.794 µM (active) | 0.0501 µM (active) | 1.26 µM (active) | 0.002 µM (active) | > 6.31 µM (inactive) | 3.98 µM (active) | 3.16 µM (active) | 0.0316 µM (active) | 0.0251 µM (active) | 0.794 µM (active) | pKi [2]: 6.2; pKi [3]: 6.2; pKi [4]: 6.8; pKi [6]: 6.4; pKi [7]: 8.9; pKi [8]: 6.1; pKi [9]: 7.3; pKi [10]: 5.9; pKi [11]: 8.7; pKi [13]: 5.4; pKi [14]: 5.5; pKi [15]: 7.5; pKi [16]: 7.6; pKi [17]: 6.1
O=C(O)C1CN(Cc2ccc(OCc3ccccc3)cc2Cl)C1 | – | > 6.31 µM (inactive) | 0.126 µM (active) | > 5.01 µM (inactive) | > 3.16 µM (inactive) | > 3.98 µM (inactive) | > 3.98 µM (inactive) | > 3.98 µM (inactive) | > 3.98 µM (inactive) | > 5.01 µM (inactive) | > 2.51 µM (inactive) | > 6.31 µM (inactive) | > 3.98 µM (inactive) | > 6.31 µM (inactive) | > 3.98 µM (inactive) | > 2 µM (inactive) | > 2.51 µM (inactive) | –
